In this assay the target is 1-aminocyclopropane-1-carboxylate oxidase 1 (Malus domestica, UniProt Q00985). The assay can be described thus: Inhibition Assay. The text has this:
Enzyme inhibition assay using ethylene-forming enzyme (EFE).

For orientation: Ki means a measure of affinity in units of concentration, obtained from inhibition or displacement.

Sequence of 1-aminocyclopropane-1-carboxylate oxidase 1 (Q00985 whole entry): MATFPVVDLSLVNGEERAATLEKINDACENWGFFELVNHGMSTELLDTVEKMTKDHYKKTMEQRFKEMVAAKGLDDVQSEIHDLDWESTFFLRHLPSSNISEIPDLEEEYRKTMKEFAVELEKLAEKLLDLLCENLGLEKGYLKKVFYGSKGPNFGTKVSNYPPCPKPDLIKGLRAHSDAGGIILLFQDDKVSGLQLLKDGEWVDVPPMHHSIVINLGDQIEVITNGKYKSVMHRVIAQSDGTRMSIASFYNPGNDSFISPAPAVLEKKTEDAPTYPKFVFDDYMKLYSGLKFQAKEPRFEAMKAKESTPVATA

Regarding `O=C(O)C1(NO)CCC1` [N-Hydroxyaminocyclobutanecarboxylic acid], the inhibition constant Ki worked out at 18 µM. In other words, the double-digit micromolar range.
Under `CC(C)(N)C(=O)O` [Aminoisobutyric (AIB)] stands 150 µM; under `NC1(C(=O)O)CCC1` [Aminocyclobutanecarboxylic acid (ACBC)], 220 µM; under `CC(C)(NO)C(=O)O` [N-hydroxy aminoisobutryic acid], 13 µM.

These data come from BindingDB's records for doi:10.1016/s1074-5521(98)90086-2 (Duke University, 1998).
